Results as given in patent US9708318B2, “Bicyclic heterocycles as FGFR4 inhibitors” (Incyte Corporation, priority 2015, dated 2017).
Like-named read-outs stand apart in the source and are kept apart here.

How the values were obtained:
[1] = target: FGFR3 enzyme (Homo sapiens (Human), UniProt P22607); test: FGFR Enzymatic Assay (FRET peptide phosphorylation), FGFR3; type: biochemical; conditions: for FGFR1/FGFR3 IC50 ratio / FGFR4/FGFR3 IC50 ratio: FGFR3 selectivity
Description: (§1) The inhibitor potency of the exemplified compounds was measured in an enzyme assay that measures peptide phosphorylation using FRET measurements to detect product formation. Inhibitors were serially diluted in DMSO and a volume of 0.5 μL was transferred to the wells of a 384-well plate.
(§2) GraphPad prism3 was used to analyze the data.

[2] = target: FGFR2 (Homo sapiens (Human), UniProt P21802); test: FGFR Enzymatic Assay (FRET peptide phosphorylation), FGFR2; type: biochemical
FGFR2, sequence (P21802 22-821): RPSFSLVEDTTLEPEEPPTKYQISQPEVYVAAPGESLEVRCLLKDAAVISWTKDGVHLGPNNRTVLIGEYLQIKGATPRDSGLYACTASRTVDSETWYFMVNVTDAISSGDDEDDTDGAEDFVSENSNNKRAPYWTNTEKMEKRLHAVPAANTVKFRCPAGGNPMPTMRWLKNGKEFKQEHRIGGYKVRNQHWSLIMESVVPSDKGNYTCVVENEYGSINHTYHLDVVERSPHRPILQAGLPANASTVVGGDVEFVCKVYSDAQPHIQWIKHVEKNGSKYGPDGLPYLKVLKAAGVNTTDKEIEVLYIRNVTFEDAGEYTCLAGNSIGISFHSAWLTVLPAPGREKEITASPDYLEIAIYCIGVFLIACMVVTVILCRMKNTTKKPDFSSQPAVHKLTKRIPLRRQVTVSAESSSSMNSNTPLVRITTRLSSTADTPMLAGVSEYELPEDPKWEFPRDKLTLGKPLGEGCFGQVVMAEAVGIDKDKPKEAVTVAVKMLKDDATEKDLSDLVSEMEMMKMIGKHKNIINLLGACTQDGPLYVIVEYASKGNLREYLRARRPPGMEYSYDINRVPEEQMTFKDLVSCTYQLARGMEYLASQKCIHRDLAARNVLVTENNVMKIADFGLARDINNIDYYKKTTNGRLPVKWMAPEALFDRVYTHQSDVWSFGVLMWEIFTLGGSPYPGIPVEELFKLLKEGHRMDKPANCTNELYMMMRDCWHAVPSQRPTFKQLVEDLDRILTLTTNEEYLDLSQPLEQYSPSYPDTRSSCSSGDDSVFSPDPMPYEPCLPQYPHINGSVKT
Description: as §1
(§3) The enzymes were purchased from Millipore or Invitrogen.
as §2

[3] = target: FGFR4 (Homo sapiens (Human), UniProt P22455); test: FGFR Enzymatic Assay (FRET peptide phosphorylation), FGFR4; type: biochemical; conditions: for FGFR1/FGFR4 IC50 ratio / FGFR2/FGFR4 IC50 ratio / FGFR3/FGFR4 IC50 ratio: FGFR4 selectivity
FGFR4, sequence (P22455 22-802): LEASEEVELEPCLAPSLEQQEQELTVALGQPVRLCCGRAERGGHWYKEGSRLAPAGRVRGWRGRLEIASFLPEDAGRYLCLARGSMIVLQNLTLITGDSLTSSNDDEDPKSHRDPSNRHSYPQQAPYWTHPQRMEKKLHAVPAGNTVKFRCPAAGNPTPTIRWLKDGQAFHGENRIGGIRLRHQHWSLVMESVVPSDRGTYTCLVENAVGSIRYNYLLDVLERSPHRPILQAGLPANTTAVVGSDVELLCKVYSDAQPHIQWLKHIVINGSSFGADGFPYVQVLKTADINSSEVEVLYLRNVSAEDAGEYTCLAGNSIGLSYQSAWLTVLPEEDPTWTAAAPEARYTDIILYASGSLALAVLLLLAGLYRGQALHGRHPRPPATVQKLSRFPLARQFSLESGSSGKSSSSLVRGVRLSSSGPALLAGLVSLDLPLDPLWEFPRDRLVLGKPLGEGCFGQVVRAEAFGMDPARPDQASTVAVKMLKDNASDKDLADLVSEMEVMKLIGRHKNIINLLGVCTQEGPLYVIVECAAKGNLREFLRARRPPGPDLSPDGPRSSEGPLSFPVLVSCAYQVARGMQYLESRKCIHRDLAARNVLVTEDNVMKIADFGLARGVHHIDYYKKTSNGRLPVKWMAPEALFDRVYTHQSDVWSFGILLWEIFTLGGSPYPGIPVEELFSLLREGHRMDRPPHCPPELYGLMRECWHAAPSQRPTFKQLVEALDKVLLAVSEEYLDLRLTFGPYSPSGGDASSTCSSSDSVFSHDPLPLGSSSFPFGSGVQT
Description: as §1, §3, §2

[4] = target: FGFR1 (Homo sapiens (Human), UniProt P11362); test: FGFR Enzymatic Assay (FRET peptide phosphorylation), FGFR1
FGFR1, sequence (P11362 22-822): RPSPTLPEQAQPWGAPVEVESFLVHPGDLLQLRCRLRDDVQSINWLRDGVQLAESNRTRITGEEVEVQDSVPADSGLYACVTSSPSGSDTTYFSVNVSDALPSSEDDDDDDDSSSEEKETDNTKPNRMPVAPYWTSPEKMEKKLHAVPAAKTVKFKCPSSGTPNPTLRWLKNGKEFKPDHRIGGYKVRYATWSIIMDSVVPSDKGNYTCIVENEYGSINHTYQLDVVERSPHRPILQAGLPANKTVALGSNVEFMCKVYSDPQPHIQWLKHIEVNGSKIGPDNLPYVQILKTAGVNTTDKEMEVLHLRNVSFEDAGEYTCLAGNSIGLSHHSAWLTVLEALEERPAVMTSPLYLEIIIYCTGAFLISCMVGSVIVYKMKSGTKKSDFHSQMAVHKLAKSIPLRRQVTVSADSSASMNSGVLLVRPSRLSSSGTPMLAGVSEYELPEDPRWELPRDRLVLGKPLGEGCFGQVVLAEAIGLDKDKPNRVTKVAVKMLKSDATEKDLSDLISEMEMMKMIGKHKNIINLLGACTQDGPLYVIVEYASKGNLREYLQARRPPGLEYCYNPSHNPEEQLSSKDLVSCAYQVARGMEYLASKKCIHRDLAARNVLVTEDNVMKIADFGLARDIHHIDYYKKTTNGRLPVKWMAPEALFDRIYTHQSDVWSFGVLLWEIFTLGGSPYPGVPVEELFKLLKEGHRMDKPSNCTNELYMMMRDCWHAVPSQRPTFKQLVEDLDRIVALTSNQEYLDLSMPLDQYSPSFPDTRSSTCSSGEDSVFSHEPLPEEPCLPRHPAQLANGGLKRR

[5] = pre-incubated for 4 hours, read-out: FGFR3 IC50
[6] = FGFR1 IC50 (nM), pre-incubated for 4 hours
[7] = pre-incubated for 5 to 10 minutes
[8] = read-out: FGFR1 IC50, pre-incubated for 5 to 10 minutes
[9] = read-out: FGFR1 IC50, pre-incubated for 4 hours
[10] = pre-incubated for 5 to 10 minutes, read-out: FGFR3 IC50

FGFR3 enzyme, sequence (P22607 23-806): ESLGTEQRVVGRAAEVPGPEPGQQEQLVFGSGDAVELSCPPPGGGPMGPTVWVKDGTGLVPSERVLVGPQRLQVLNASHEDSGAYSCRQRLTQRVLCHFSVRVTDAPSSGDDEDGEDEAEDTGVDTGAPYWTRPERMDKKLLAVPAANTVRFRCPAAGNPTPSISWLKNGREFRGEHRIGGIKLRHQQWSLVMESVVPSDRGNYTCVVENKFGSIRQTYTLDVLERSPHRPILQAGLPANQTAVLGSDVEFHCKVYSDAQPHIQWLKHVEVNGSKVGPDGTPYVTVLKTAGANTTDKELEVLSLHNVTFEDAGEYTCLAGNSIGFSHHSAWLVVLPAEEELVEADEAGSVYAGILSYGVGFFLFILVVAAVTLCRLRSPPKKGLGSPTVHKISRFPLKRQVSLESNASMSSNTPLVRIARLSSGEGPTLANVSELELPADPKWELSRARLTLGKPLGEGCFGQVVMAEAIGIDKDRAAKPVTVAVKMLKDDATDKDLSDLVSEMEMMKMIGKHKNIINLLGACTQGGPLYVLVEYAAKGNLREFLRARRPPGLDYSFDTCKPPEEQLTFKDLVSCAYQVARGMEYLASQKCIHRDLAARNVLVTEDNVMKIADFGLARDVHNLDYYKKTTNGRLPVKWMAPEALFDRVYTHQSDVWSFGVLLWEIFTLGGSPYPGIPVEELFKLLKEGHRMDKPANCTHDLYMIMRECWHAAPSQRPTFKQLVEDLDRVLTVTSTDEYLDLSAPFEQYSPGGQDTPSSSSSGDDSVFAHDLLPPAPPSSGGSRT

| SMILES | FGFR1/FGFR3 IC50 ratio ([1]; pre-incubated for 4 hours) | FGFR4/FGFR3 IC50 ratio ([1]; pre-incubated for 4 hours) | IC50 [1, 5] [nM] | IC50 ([2]; pre-incubated for 4 hours) [nM] | IC50 ([3]; pre-incubated for 4 hours) [nM] | IC50 [4, 6] [nM] | further results |
| --- | --- | --- | --- | --- | --- | --- | --- |
| COc1cc(OC)c(F)c(N2Cc3cnc(-c4cnn(CCC5CCN(S(C)(=O)=O)CC5)c4)cc3C3(CC3)C2=O)c1F [Example 148, 2′-(2,6-difluoro-3,5-dimethoxyphenyl)-6′-(1-(2-(1-(methylsulfonyl)piperidin-4-yl)ethyl)-1H-pyrazol-4-yl)-1′H-spiro[cyclopropane-1,4′-[2,7]naphthyridin]-3′(2′H)-one] | >10 | >3 | < 10 | 10 to 30 | 10 to 30 | 30 to 200 | – |
| COc1cc(OC)c(F)c(N2Cc3cnc(-c4cn(C)nc4C)cc3N(Cc3cnccn3)C2=O)c1F [Example 85, 3-(2,6-difluoro-3,5-dimethoxyphenyl)-7-(1,3-dimethyl-1H-pyrazol-4-yl)-1-(pyrazin-2-ylmethyl)-3,4-dihydropyrido[4,3-d]pyrimidin-2(1H)-one] | >5 | >10 | < 10 | 10 to 30 | 30 to 200 | 30 to 200 | – |
| CCN1C(=O)N(c2c(F)c(OC)cc(OC)c2F)Cc2cnc(-c3ccc(CC#N)cc3)cc21 [Example 180, 2-(4-(3-(2,6-difluoro-3,5-dimethoxyphenyl)-1-ethyl-2-oxo-1,2,3,4-tetrahydropyrido[4,3-d]pyrimidin-7-yl)phenyl)acetonitrile] | >5 | >5 | < 10 | < 10 | 10 to 30 | 30 to 200 | – |
| COC(=O)N1CCC(N2C(=O)N(c3c(F)c(OC)cc(OC)c3F)Cc3cnc(-c4cn(C)nc4C)cc32)CC1 [Example 122, Methyl 4-(3-(2,6-difluoro-3,5-dimethoxyphenyl)-7-(1,3-dimethyl-1H-pyrazol-4-yl)-2-oxo-3,4-dihydropyrido[4,3-d]pyrimidin-1(2H)-yl)piperidine-1-carboxylate] | >5 | >5 | – | 10 to 30 | 30 to 200 | – | IC50 [1]: 10 to 30 nM; IC50 [4]: 30 to 200 nM |
| COc1cc(OC)c(F)c(N2Cc3cnc(-c4cc(N)ccc4C)cc3C3(CC3)C2=O)c1F [Example 1, 6′-(5-amino-2-methylphenyl)-2′-(2,6-difluoro-3,5-dimethoxyphenyl)-1′H-spiro[cyclopropane-1,4′-[2,7]naphthyridin]-3′(2′H)-one] | – | – | – | > 200 | 30 to 200 | – | IC50 ([1]; read-out: FGFR3 IC50): > 200 nM; IC50 [2, 7]: > 200 nM; FGFR1/FGFR4 IC50 ratio [3, 7]: >25; FGFR2/FGFR4 IC50 ratio [3, 7]: >25; FGFR3/FGFR4 IC50 ratio [3, 7]: >50; FGFR1/FGFR4 IC50 ratio ([3]; pre-incubated for 4 hours): >25; FGFR2/FGFR4 IC50 ratio ([3]; pre-incubated for 4 hours): >25; FGFR3/FGFR4 IC50 ratio ([3]; pre-incubated for 4 hours): >25; IC50 [3, 7]: 30 to 200 nM; IC50 [4, 8]: > 200 nM; IC50 [4, 9]: > 200 nM |
| COc1cc(OC)c(F)c(N2Cc3cnc(-c4cc(N)c(F)cc4C)cc3C3(CC3)C2=O)c1F [Example 2, 6′-(5-amino-4-fluoro-2-methylphenyl)-2′-(2,6-difluoro-3,5-dimethoxyphenyl)-1′H-spiro[cyclopropane-1,4′-[2,7]naphthyridin]-3′(2′H)-one] | – | – | > 200 | > 200 | 30 to 200 | – | IC50 [1, 10]: > 200 nM; IC50 [2, 7]: > 200 nM; FGFR1/FGFR4 IC50 ratio [3, 7]: >10; FGFR2/FGFR4 IC50 ratio [3, 7]: >10; FGFR3/FGFR4 IC50 ratio [3, 7]: >10; FGFR1/FGFR4 IC50 ratio ([3]; pre-incubated for 4 hours): >10; FGFR2/FGFR4 IC50 ratio ([3]; pre-incubated for 4 hours): >10; FGFR3/FGFR4 IC50 ratio ([3]; pre-incubated for 4 hours): >10; IC50 [3, 7]: 30 to 200 nM; IC50 [4, 8]: > 200 nM; IC50 [4, 9]: > 200 nM |
| COc1cc(OC)c(F)c(N2Cc3cnc(-c4cn(C)nc4C)cc3N(c3ccccc3F)C2=O)c1F [Example 110, 3-(2,6-difluoro-3,5-dimethoxyphenyl)-7-(1,3-dimethyl-1H-pyrazol-4-yl)-1-(2-fluorophenyl)-3,4-dihydropyrido[4,3-d]pyrimidin-2(1H)-one] | >3 | >5 | < 10 | < 10 | 30 to 200 | 10 to 30 | – |
| CNS(=O)(=O)c1cccc(N2C(=O)N(c3c(F)c(OC)cc(OC)c3F)Cc3cnc(-c4cn(C)nc4C)cc32)c1 [Example 111, 3-(3-(2,6-difluoro-3,5-dimethoxyphenyl)-7-(1,3-dimethy-1H-pyrazol-4-yl)-2-oxo-3,4-dihydropyrido[4,3-d]pyrimidin-1(2H)-yl)-N-methylbenzenesulfonamide] | >3 | >5 | < 10 | < 10 | 30 to 200 | 10 to 30 | – |
| COc1cc(OC)c(F)c(N2Cc3cnc(-c4cnn(C5CCN(S(C)(=O)=O)C5)c4)cc3C3(CC3)C2=O)c1F (stereo not shown) [Example 147, 2′-(2,6-difluoro-3,5-dimethoxyphenyl)-6′-(1-(1-(methylsulfonyl)pyrrolidin-3-yl)-1H-pyrazol-4-yl)-1′H-spiro[cyclopropane-1,4′-[2,7]naphthyridin]-3′(2′H)-one] | >10 | >3 | < 10 | < 10 | < 10 | 10 to 30 | – |
| COc1cc(OC)c(F)c(N2Cc3cnc(-c4cn(C)nc4C)cc3N(c3cnn(C4CC4)c3)C2=O)c1F [Example 130, 1-(1-cyclopropyl-1H-pyrazol-4-yl)-3-(2,6-difluoro-3,5-dimethoxyphenyl)-7-(1,3-dimethyl-1H-pyrazol-4-yl)-3,4-dihydropyrido[4,3-d]pyrimidin-2(1H)-one] | >5 | >5 | 10 to 30 | 10 to 30 | 30 to 200 | 30 to 200 | – |
| CCN1C(=O)N(c2c(F)c(OC)cc(OC)c2F)Cc2cnc(-c3ccc(C(=O)NCCO)nc3)cc21 [Example 177, 5-(3-(2,6-difluoro-3,5-dimethoxyphenyl)-1-ethyl-2-oxo-1,2,3,4-tetrahydropyrido[4,3-d]pyrimidin-7-yl)-N-(2-hydroxyethyl)picolinamide] | >5 | >10 | < 10 | < 10 | 10 to 30 | 10 to 30 | – |
| COc1cc(OC)c(F)c(N2Cc3cnc(-c4cn(C)nc4C)cc3N(Cc3ccc(F)c(F)c3)C2=O)c1F [Example 73, 3-(2,6-difluoro-3,5-dimethoxyphenyl)-1-(3,4-difluorobenzyl)-7-(1,3-dimethyl-1H-pyrazol-4-yl)-3,4-dihydropyrido[4,3-d]pyrimidin-2(1H)-one] | >5 | >10 | 10 to 30 | 10 to 30 | 30 to 200 | 30 to 200 | – |
| COc1cc(OC)c(F)c(N2Cc3cnc(-c4cn(C)nc4C)cc3N(c3ccc(F)c(C#N)c3)C2=O)c1F [Example 66, 5-(3-(2,6-difluoro-3,5-dimethoxyphenyl)-7-(1,3-dimethyl-1H-pyrazol-4-yl)-2-oxo-3,4-dihydropyrido[4,3-d]pyrimidin-1(2H)-yl)-2-fluorobenzonitrile] | >5 | >5 | 10 to 30 | 30 to 200 | 30 to 200 | – | IC50 [4, 9]: > 200 nM |
| COc1cc(OC)c(F)c(N2Cc3cnc(-c4ccc(C5(C#N)CCC5)nc4)cc3N(CC3CC3)C2=O)c1F [Example 140, 1-(5-(1-(cyclopropylmethyl)-3-(2,6-difluoro-3,5-dimethoxyphenyl)-2-oxo-1,2,3,4-tetrahydropyrido[4,3-d]pyrimidin-7-yl)pyridin-2-yl)cyclobutanecarbonitrile] | – | – | – | – | – | – | IC50 [1, 10]: 10 to 30 nM; IC50 [2, 7]: < 10 nM; IC50 [3, 7]: 30 to 200 nM; IC50 ([4]; FGFR1 IC50 (nM), pre-incubated for 5 to 10 minutes): 30 to 200 nM |
| COc1cc(OC)c(F)c(N2Cc3cnc(-c4cn(C)nc4C)cc3N(c3cc(F)cc(F)c3)C2=O)c1F [Example 103, 3-(2,6-difluoro-3,5-dimethoxyphenyl)-1-(3,5-difluorophenyl)-7-(1,3-dimethyl-1H-pyrazol-4-yl)-3,4-dihydropyrido[4,3-d]pyrimidin-2(1H)-one] | >3 | >5 | 10 to 30 | 10 to 30 | 30 to 200 | 30 to 200 | – |
| COc1cc(OC)c(F)c(N2Cc3cnc(-c4cn(C)nc4C)cc3N(c3ccc(F)cc3)C2=O)c1F [Example 40, 3-(2,6-difluoro-3,5-dimethoxyphenyl)-7-(1,3-dimethyl-1H-pyrazol-4-yl)-1-(4-fluorophenyl)-3,4-dihydropyrido[4,3-d]pyrimidin-2(1H)-one] | >10 | >10 | < 10 | < 10 | 30 to 200 | 30 to 200 | – |
| COc1cc(OC)c(F)c(N2Cc3cnc(-c4cn(C)nc4C)cc3N(c3ccc(-n4cccn4)cc3)C2=O)c1F [Example 77, 1-(4-(1H-pyrazol-1-yl)phenyl)-3-(2,6-difluoro-3,5-dimethoxyphenyl)-7-(1,3-dimethyl-1H-pyrazol-4-yl)-3,4-dihydropyrido[4,3-d]pyrimidin-2(1H)-one] | >5 | >10 | < 10 | < 10 | 30 to 200 | 10 to 30 | – |
